# Marks after values point to notes of the source that are not given here.
# Tests used:
# [1] = test system: intracellular pH of Arabidopsis guard cells; experiment: Fluorescence imaging of guard cells expressing the pH sensor Pt-GFP; assay type: cell-based
# Protocol: Fluorescence imaging was performed with a TE300 inverted microscope using a TE-FM Epi-Fluorescence attachment (Nikon) as previously described (Allen et al, 2000). Fluorescence images at excitation wavelengths of 470 nm and 440 nm were taken every 2 s using light from a 75-Watt xenon short arc lamp (Osram, Germany). […] neutral density filters were used to reduce bleaching of fluorescent reporter. Metafluor software (MDS, Inc.) was used to control filter wheels, shutter and COOLSNAP™ (CoolSNAP) CCD camera from Photomerics when recording and also processing raw data. The fluorescence ratio F470/F440 of Pt-GFP was analyzed as a detection of pH shifts (Schulte et al, 2006). […]
# For recording intracellular Pt-GFP fluorescence in response to changes in extracellular pH incubation buffers, the pH of incubation buffers containing 10 mM MES, 10 mM KCl and 50 μM CaCl2 at 5.0 and 7.5 was adjusted by adding Tris-HCl. […] For recording intracellular Pt-GFP fluorescence in response to constant extracellular pH and added weak acid, the perfusion buffers contained 10 mM MES, 10 mM KCl and 50 μM CaCl2, pH 5.6 supplemented with the indicated concentrations of sodium butyrate. […] Background fluorescence intensities at 470 nm were measured in regions lacking guard cells and are also shown for the corresponding experiments.
# [2] = test system: Arabidopsis intact leaves; experiment: Stomatal conductance measurements of intact leaves in response to imposed [CO2] (Li-6400 gas exchange analyzer); assay type: in vivo
# Protocol: Stomatal conductance measurements of 5-week-old plants in response to the imposed [CO2] at a light (PAR) fluence rate of 150 μmol m^−2s^−1 were conducted with a Li-6400 gas exchange analyzer with a fluorometer chamber (Li-Cor Inc.) as described-previously (Hu at al, 2010). To reduce the wilting of abi1-1 and abi1-2 mutant leaves, all plants ware analyzed with a humidifier that humidified the air surrounding plants to ˜75-85%. Relative stomatal conductance values of intact leaves were calculated by normalization relative to 365 or 400 ppm just before transition to 800 ppm [CO2]. Data shown are mean±s.e. of at least 3 leaves per genotype in the same experimental set.
# [3] = test system: S-type anion channel currents in Arabidopsis guard cell protoplasts; experiment: Whole-cell patch-clamp recording of S-type anion currents in guard cell protoplasts; assay type: cell-based; details: for current amplitude activated by bicarbonate at a voltage of −146 mV: 13.5 mM total bicarbonate; for HCO3− activated S-type anion current at a voltage of −146 mV: 11.5 mM [HCO3−]i and 2 mM [CO2]; for I (pA) at −146 mV: wild type Col-0 guard cells, pipette pH 7.1
# Protocol: The interpulse period was 5 s. Liquid junction potentials (LJP) were determined using Clampex 10.0. No leak subtraction was applied for all current-voltage curves. Steady-state currents were the average currents during the last 500 ms of pulses. Detail contents of solutions are discussed, below (see “supplementary data”). Bicarbonate (CsHCO3) was freshly dissolved in the pipette solution before patch clamp experiments and pH was adjusted to the indicated values. The pipette solution was stored using air-tight precision glass syringes during patch clamp experiments to slow CO2 equilibration with the surrounding air and was not stored overnight. […] [HCO3^−] represents the free bicarbonate concentration; [CO2] represents the free CO2 concentration. […] To independently measure CO2 concentrations in the solutions at different pH values, an InPro 5000 CO2 sensor (Mettler Tolego 400, Mettler-Toledo Inc, USA) was used for dissolved CO2. The InPro 5000 sensor employs a gas permeable silicone membrane. The significance of differences between data sets was assessed by noncoupled double-tailed Student's t-test analysis. Values of P<0.05 were considered statistically significant.
# For experiments analyzing effects of protons on S-type anion currents, the pipette solution contained 150 mM CsCl, 2 mM MgCl2, 6.7 mM EGTA, 0.6 mM CaCl2 (2 μM [Ca^2+]i), 5 mM Mg-ATP, 5 mM Tris-GTP, 1 mM Mes/Tris, pH 6.1. For experiments with pipette solution at pH 7.8, the pipette medium contained 150 mM CsCl, 2 mM MgCl2, 2 μM free [Ca^2+]i, 5 mM Mg-ATP, 5 mM Tris-GTP, 1 mM HEPES/Tris. Calcium affinities of EGTA and free Ca^2+ concentrations were calculated using the WEBMAXC tool (http://www.stanford.edu/-epatton/webmaxc/webmaxcE.htm), which considers pH, [ATP] and ionic conditions. The bath solution contained 30 mM CsCl, 2 mM MgCl2, 5 mM CaCl2 and 10 mM Mes/Tris, pH 5.6.
# [4] = test system: voltage-dependent anion channels (R-type anion channels) in Arabidopsis hypocotyl cells; details: Arabidopsis hypocotyl cells (Frachisse et al, 1999); cited from earlier work
smiles,measurement,setting,value
"O=C=O [CO2, carbon dioxide]",guard cell intracellular pH fluorescence (Pt-GFP),[1]; CO2 bubbled in extracellular perfusion buffers repeatedly shifted from 0 ppm to 800 ppm,no clear shifts
same,initial rate of stomatal conductance change,"[2]; abi1-1 mutant plants, [CO2] shifted from 400 to 800 ppm for 30 min, ~75-85% humidity",-0.035 ± 0.007 mmol H2O m^-2 s^-1 min^-1
same,initial rate of stomatal conductance change,"[2]; abi2-1 mutant plants, [CO2] shifted from 400 to 800 ppm for 30 min, ~75-85% humidity",-0.037 ± 0.007 mmol H2O m^-2 s^-1 min^-1
same,initial rate of stomatal conductance change,"[2]; pyr1;pyl1;pyl2;pyl4 mutant plants, [CO2] shifted from 365 to 800 ppm for 30 min",−0.035±0.008 mmol H2O m^−2 s^−1 min^−1
same,initial rate of stomatal conductance change,"[2]; pyr1;pyl1;pyl2;pyl4 mutant plants, first 30 min upon shifting [CO2] from 800 to 100 ppm",0.022±0.002 mmol H2O m^−2 s^−1 min^−1
same,initial rate of stomatal conductance change,"[2]; wild type plants, [CO2] shifted from 365 to 800 ppm for 30 min",−0.038±0.014 mmol H2O m^−2 s^−1 min^−1
same,initial rate of stomatal conductance change,"[2]; wild type plants, [CO2] shifted from 400 to 800 ppm for 30 min, ~75-85% humidity",−0.041±0.01 mmol H2O m^−2 s^−1 min^−1
same,initial rate of stomatal conductance change,"[2]; wild type plants, first 30 min upon shifting [CO2] from 800 to 100 ppm",0.042±0.013 mmol H2O m^−2 s^−1 min^−1
same,activation of S-type anion channel currents,"[3]; wild type, 2 mM intracellular free [CO2] (1.1 mM free [HCO3−]i) at pH 6.1, P>0.05",not activated
O=C(O)O [bicarbonate],relative permeability ratio PHCO3−PCO−,[4],0.8
same,current amplitude activated by bicarbonate at a voltage of −146 mV,"[3]; Col-0 wild type guard cells, 2 μM [Ca2+]i, n=10",−59±5.9 pA
same,whole-cell current at a voltage of −144 mV,"[3]; Col-0 wild type, extracellular bath perfusion with 13.5 mM total bicarbonate (11.5 mM free HCO3−, 2 mM CO2) pH 7.1, n=6",−17±5 pA
same,HCO3− activated S-type anion current at a voltage of −146 mV,"[3]; Ler wild type guard cells, 2 μM [Ca2+]i, n=7",−51±4.3 pA
same,activation of anion currents,"[3]; ca1;ca4 double mutant guard cells, 13.5 mM total bicarbonate (11.5 mM free [HCO3−]i/2 mM free [CO2]) pH 7.1, 2 μM [Ca2+]i",activated anion currents
same,activation of S-type anion currents,"[3]; ht1-2 guard cells, 5.75 mM free [HCO3−]i and 1 mM free [CO2] pH 7.1, 2 μM [Ca2+]i, P<0.01",significant activation
same,activation of S-type anion currents,"[3]; ht1-2 guard cells, 5.75 mM free [HCO3−]i, [Ca2+]i buffered to 0.15 μM",no significant S-type anion current activation
same,reversal potential of CO2+HCO3− activated whole-cell currents,"[3]; imposed chloride equilibrium potential +31.1 mV, n=8",+24.0±3.6 mV
same,HCO3− activated S-type anion current at a voltage of −146 mV,"[3]; ost1-2 mutant guard cells, 2 μM [Ca2+]i, n=6",−25.2±1.9 pA
same,current amplitude activated by bicarbonate at a voltage of −146 mV,"[3]; ost1-3 mutant guard cells, 2 μM [Ca2+]i, n=6",−24±1.9 pA
same,anion currents in the presence of bicarbonate,"[3]; slac1-1 mutant guard cell protoplasts, 11.5 mM free [HCO3−]i and 2 mM [CO2], similar to control, P>0.05",only small anion currents
same,I (pA) at −146 mV,"[3]; [Ca^2+]i 0.15 μM, free [HCO3]i 11.5 mM",−22.3 ± 2.3^c pA
same,I (pA) at −146 mV,"[3]; [Ca^2+]i 0.6 μM, free [HCO3]i 11.5 mM",−27.3 ± 4.5^f pA
same,I (pA) at −146 mV,"[3]; [Ca^2+]i 2 μM, free [HCO3]i 5.75 mM",−21.8 ± 3.2^d pA
same,I (pA) at −146 mV,"[3]; [Ca^2+]i 2 μM, free [HCO3]i 11.5 mM",−58.7 ± 5.9^e pA
same,activation of S-type anion currents,"[3]; wild type, 13.04 mM free [HCO3−] with 0.46 mM free [CO2] at pH 7.8, 2 μM [Ca2+]i, P<0.05",S-type anion currents were activated
same,reversal potential of whole-cell S-type anion currents,"[3]; wild type, 50 mM total bicarbonate in pipette pH 7.1 (43.4 mM free [HCO3−]i, 6.6 mM free [CO2]), n=4",+26.0±0.9 mV
same,relative permeability ratio of PHCO3−/PCi−,"[3]; wild type, 50 mM total bicarbonate, estimated using the Goldman equation",0.06±0.01
same,activation of S-type anion currents by extracellular application,"[3]; wild type, bath perfused 2 min with 11.5 mM free [HCO3−] and 2 mM [CO2] at pH 7.1",No large S-type anion currents were activated
CCCC(=O)[O-].[Na+] [sodium butyrate],"ratiometric fluorescence (F470/F440) of Pt-GFP, intracellular pH","[1]; intact epidermes perfused with sodium butyrate-containing MES buffers, pH 5.6",clear shifts

# Source: patent US20130326734A1, “COMPOSITIONS AND METHODS FOR CONTROLLING CARBON DIOXIDE- (CO2-) REGULATED STOMATAL APERTURES, WATER TRANSPIRATION AND WATER USE EFFICIENCY IN PLANTS” (THE REGENTS OF THE UNIVERSITY OF CALIFORNIA, priority 2011, published 2013)
